Measurements: ChEMBL document CHEMBL4052616, “Isoniazid derivatives and their anti-tubercular activity” (Eur J Med Chem, 2017)
Values after ≈ are worked out from the molar mass of the structure shown.

System: Mycobacterium tuberculosis
Experiment: Antimycobacterial activity against human resistant Mycobacterium tuberculosis measured after six weeks
Assay type: functional

SMILES	MIC [µg/mL]
C=CCN1C(=O)/C(=N\NC(=O)c2ccncc2)c2ccccc21	2.7 to 3.5 (≈ 8.81 to 11.4 µM)
O=C(N/N=C1\C(=O)N(Cc2ccccc2)c2ccccc21)c1ccncc1	2.7 to 3.5 (≈ 7.58 to 9.82 µM)
